One experiment concerns beta-catenin. Briefly: Immunofluorescence and WB of beta-catenin and downstream EMT-related genes. It is filed as cell-based. An excerpt:
(§1) Among the three predicted H3K27me3 binding sites in the promoter region of the target gene adenomatous polyposis coli 2 (APC2), sitel is a significant binding region of H3K27me3 (FIG. 5A). After the treatment with 36806, the binding of H3K27me3 in sitel region was weakened, and the binding of RNA polymerase II was strengthened (FIGS. 5B and 5C). […] APC2 is a tumor suppressor gene that can participate in the degradation of beta-catenin by ubiquitination and can inhibit the WNT signal path. The increased expression of APC2 can boost the degradation of beta-catenin. The nucleus-cytoplasm distribution of beta-catenin of cells in the treated group was decreased compared with that of the DMSO group (FIGS. 5D-5F). In this way, the downstream transcription of beta-catenin is inhibited, the expression of downstream EMT-related gene of multiple tumor cell lines is inhibited, and the protein expression is reduced (FIGS. 5G). Therefore, the invasion of tumor cells is weakened (FIG. 5H). Therefore, 36806 can inhibits the WNT signal path, reverses tumor EMT, and reduces tumor invasion and metastasis by increasing the expression level of target gene APC2.

In experiment [1] the test system is H3K27me3 in the promoter region of the target genes. Nature of the experiment: CHIP experiments, H3K27me3 and RNA polymerase II in promoter region of target genes. It is filed as cell-based.
Description: FIG. 3F: Chromatin immunoprecipitation (CHIP) experiments verified that 36806 affected the recruitment of PRC2 by HOTAIR after hindering the binding of HOTAIR to EZH2, such that the level of H3K27me3 in the promoter region of the target genes was reduced and the target genes were transcriptionally activated.
FIG. 5A: The Site1 region before the transcription initiation of APC2 is a transcription promoter region of APC2 and a binding region of H3K27me3.
FIG. 5B: After the treatment with 36806, the binding of H3K27me3 in Site1 region was weakened, and the binding of RNA polymerase II was strengthened.
(§2) Therefore, the inhibiting effect of 36806 on HOTAIR-EZH2 is specific.
as §1

Experiment [2] relates to glioblastoma, breast cancer, melanoma and gastric cancer cell lines. Briefly: Transwell invasion assay. The experiment is classed as cell-based. The conditions noted are these: low-dose 40 nM (FIG. 5H).
Description: as §1

For experiment [3], the system named is binding of HOTAIR to the target genes. Nature of the experiment: CHIRP experiments, binding of HOTAIR to target genes. The following applies: 40 nM.
Description: as §2

Experiment [4] has as its system MDA-MB-231 breast cancer orthotopic model. Briefly: Breast cancer orthotopic model established with MDA-MB-231 cell line. The experiment is classed as in vivo, mouse. The following applies: 50 mg/kg intraperitoneal. An excerpt: To further verify the anti-tumor effect of 36806 in vivo, a breast cancer orthotopic model is established by using a MDA-MB-231 cell line. […] The tumor volume measured on the body surface was reduced, and the size and wet weight of the tumor after dissection were reduced as well (FIGS. 6C-6D). […] HE staining confirmed the orthotopic lung metastasis of breast cancer (FIG. 6F). […] The above is consistent with the results of in-vitro experiments, that is, 36806 can inhibit the proliferation and metastasis of breast cancer orthotopic model.
A breast cancer orthotopic model is established by using a MDA-MB-231 cell line. 0.2 mg/kg 36806 in combination with 0.2 mg/kg DZNEP served as a combination group (the molar ratio was about 1:1), 0.2 mg/kg 36806 and 1 mg/kg DZNEP served as single-drug groups, and DMSO served as a control group.

The subject of experiment [5] is HOTAIR target genes. Nature of the experiment: Western blot of protein level of HOTAIR target genes. The experiment is classed as cell-based. The protocol:
(§3) Therefore, 36806 is capable of inhibiting the binding of HOTAIR to EZH2 at low concentrations and interfering with the recruitment of PRC2 to target genes, to relieve the target genes from silent suppression of histone methylation, thereby altering the function of epigenetic regulation.
The combination index (CI) of 36806 and DZNEP was measured by CalcuSyn software. […] After the transfection of EZH2 interfering RNA, combined with 36806 treatment, the transcription level of HOTAIR's target genes was higher (FIG. 7C). […] When used in combination with low-dose 36806, the dosage of DZNEP can be reduced by ⅘ (FIG. 7D).
Background: In western blotting, separated proteins are transferred to a membrane and probed.

Experiment [6] deals with HOTAIR target genes. Briefly: qPCR RNA level of HOTAIR target genes in tumor cell lines. The experiment is classed as cell-based. The procedure: FIG. 2B: The variations in RNA level of a target gene 48 h after treating with 40 nM of 36806 in multiple tumor cell lines.
FIG. 4A: RNA levels change of target genes in glioma and breast cancer cell lines after treating with 40 uM of 36806 for 48 hours.
FIG. 4C: RNA levels change of target genes after treating with low-dose 36806 concentration gradient for 48 hours.
as §3
In general terms: Quantitative PCR measures a nucleic acid by following its amplification.

In experiment [7] the test system is multiple tumor cell lines. The conditions noted are these: glioblastoma (U87-MG, LN229, primary N33), breast cancer (MDA-MB-231, MCF-7), HeLa, A375, SGC-7901, MGC-803, HepG2, PC9 cell lines.
Description: Toxicity tests were then performed in multiple tumor cell lines.
[8] abbreviates: 40 uM, 48 hours, glioma and breast cancer cell lines.
The mark [9] stands for this setting: low concentration gradient of 10 nM to 10 uM, 48 hours.

The structures appear in SMILES notation.

Regarding `CC(C)NCC1Cc2cc(Cl)cc(Cl)c2O1` (stereo not drawn) [compound 36806, N-[(5,7-dichloro-2,3-dihydro-1-benzofuran-2-yl)methyl]propan-2-amine], in the experiment with beta-catenin (compared with DMSO group), the “nucleus-cytoplasm distribution of beta-catenin” value is reported as “decreased”. Moreover, in the experiment on beta-catenin (multiple tumor cell lines), the “protein expression of downstream EMT-related genes” value was “reduced”. Also, the “level of H3K27me3 in the promoter region of the target genes (CHIP)” value in experiment [1] is “reduced”. In experiment [1] (after treatment with 36806), the “binding of H3K27me3 in site1 region of APC2 promoter” value is given as “weakened” and the “binding of RNA polymerase II in site1 region of APC2 promoter” value is on record as “strengthened”. In experiment [2], the “invasion of tumor cells” value is recorded as “weakened”. Further, in experiment [3], the “binding of HOTAIR to the target genes (CHIRP)” value is reported as “without affecting”. For the same compound, in experiment [4], the “expression of APC2 (immunofluorescence of tissue sections)” value is given as “increased”; the “expression of beta-catenin (immunofluorescence of tissue sections)” value is “decreased”; the “expression of target genes HOXD10 and PCDH10 (immunofluorescence of tissue sections)” value was “increased”. The “tumor size (bioluminescence imaging)” value in experiment [4] (20 days and 40 days, vs DMSO group) was “significantly reduced”. In experiment [4] (vs DMSO group), the “size and wet weight of the tumor after dissection” value is “reduced”; the “tumor volume measured on the body surface” value is on record as “reduced”. Also, the “probability and scope of lung metastasis” value in experiment [4] (organ imaging) is given as “smaller”. For the same compound, the “protein level of HOTAIR's target genes HOXD10, PCDH10, PCDHB5, NLK, APC2” value with HOTAIR target genes [5] (setting [8]) was “increase”. Moreover, the “protein level of the target genes, time gradient” value in the experiment with HOTAIR target genes [5] (40 uM, time gradient) was “changed”. For the same compound, in the experiment with HOTAIR target genes [5] (setting [9]), the “protein level of the target genes” value is “increased”. Moreover, the “mRNA level of HOTAIR's target genes HOXD10, PCDH10, PCDHB5, NLK, APC2” value in the experiment on HOTAIR target genes [6] (setting [8]) is recorded as “increase”. Further, the “expression level of HOTAIR target genes” value in the experiment with HOTAIR target genes [6] (RNA level, 40 nM, 48 h, multiple tumor cell lines) is listed as “up-regulate”. In addition, the “RNA level of the target genes” value in the experiment on HOTAIR target genes [6] (setting [9]) is reported as “increased”. Also, the “IC50 of 36806” value in experiment [7] is reported as “low”.

The record behind these values is US11484522B2, “Composite formulation and use thereof for preparing drugs for the treatment of tumours” (TIANJIN MEDICAL UNIVERSITY GENERAL HOSPITAL, priority 2018, dated 2022).
